Results taken from the supplement of paper PMC13380429.

Legend:
Settings in all cases: 72 h
Vero E6 [1] = experiment: cell viability relative to DMSO; higher = less toxic
U2OS [2] = experiment: as above
HepG2 [3] = experiment: as above
Caco-2 [4] = experiment: as above
Calu-3 [5] = experiment: as above
Vero E6 [6] = experiment: drug sensitivity score (DSS) for viability; higher = more toxic; extreme values may be limits of the assay
U2OS [7] = experiment: as above
HepG2 [8] = experiment: as above
Caco-2 [9] = experiment: as above
Calu-3 [10] = experiment: as above
U2OS [11] = experiment: relative viability EC50 (midpoint between 100% and the lowest measured viability); higher = less toxic
HepG2 [12] = experiment: as above
Caco-2 [13] = experiment: as above
Calu-3 [14] = experiment: as above
Vero E6 [15] = experiment: as above

SMILES	cell viability (Vero E6 [1]; 1 nM) [%]	cell viability (Vero E6 [1]; 10 nM) [%]	cell viability (Vero E6 [1]; 100 nM) [%]	cell viability (Vero E6 [1]; 1000 nM) [%]	cell viability (Vero E6 [1]; 10000 nM) [%]	cell viability (U2OS [2]; 1 nM) [%]	cell viability (U2OS [2]; 10 nM) [%]	cell viability (U2OS [2]; 100 nM) [%]	cell viability (U2OS [2]; 1000 nM) [%]	cell viability (U2OS [2]; 10000 nM) [%]	cell viability (HepG2 [3]; 1 nM) [%]	cell viability (HepG2 [3]; 10 nM) [%]	cell viability (HepG2 [3]; 100 nM) [%]	cell viability (HepG2 [3]; 1000 nM) [%]	cell viability (HepG2 [3]; 10000 nM) [%]	cell viability (Caco-2 [4]; 1 nM) [%]	cell viability (Caco-2 [4]; 10 nM) [%]	cell viability (Caco-2 [4]; 100 nM) [%]	cell viability (Caco-2 [4]; 1000 nM) [%]	cell viability (Caco-2 [4]; 10000 nM) [%]	cell viability (Calu-3 [5]; 1 nM) [%]	cell viability (Calu-3 [5]; 10 nM) [%]	cell viability (Calu-3 [5]; 100 nM) [%]	cell viability (Calu-3 [5]; 1000 nM) [%]	cell viability (Calu-3 [5]; 10000 nM) [%]	drug sensitivity score (Vero E6 [6])	drug sensitivity score (U2OS [7])	drug sensitivity score (HepG2 [8])	drug sensitivity score (Caco-2 [9])	drug sensitivity score (Calu-3 [10])	relative viability EC50 (U2OS [11]) [µM]	relative viability EC50 (HepG2 [12]) [µM]	relative viability EC50 (Caco-2 [13]) [µM]	relative viability EC50 (Calu-3 [14]) [µM]	relative viability EC50 (Vero E6 [15]) [µM]
O=C1C(O)=C([C@H]2CC[C@H](c3ccc(Cl)cc3)CC2)C(=O)c2ccccc21 [atovaquone]	95.2	101	101	99.2	66.3	96.8	98.3	96.5	96.4	92.8	99.4	90.2	94.8	98.9	107	94.6	103	104	102	95.9	102	107	92.2	102	108	1.7	0	0	0	0	> 10	> 10	> 10	> 10	–
COc1cnc(NS(=O)(=O)c2ccc(N)cc2)nc1 [sulfameter]	–	–	–	–	–	96.2	101	94.3	101	97.2	102	110	97	99.6	106	106	103	92.7	103	98.8	97.2	96.4	99.3	101	105	–	0	0	0	0	> 10	> 10	> 10	> 10	–
O=C(C(c1ccccc1)c1ccccc1)N1CCN(CC(O)COc2cccc3ncccc23)CC1 (stereo unspecified) [dofequidar]	–	–	–	–	–	97.4	102	94.2	102	93.8	95.7	104	105	105	102	102	99.9	94.7	103	86.3	90.5	97.8	109	129	104	–	0	0	0.1	0	> 10	> 10	> 10	> 10	–
CCC(=O)c1ccc(OCC(O)CN2CCN(c3ccccc3)CC2)cc1 (stereo unspecified) [centpropazine]	–	–	–	–	–	100	103	99.3	106	97.3	120	112	106	101	90	96.8	92.8	94.6	93.1	98.4	–	–	–	–	–	–	0	0	0	–	> 10	> 10	> 10	–	–
CCCSc1nc(N[C@@H]2C[C@H]2c2ccc(F)c(F)c2)c2nnn([C@@H]3C[C@H](OCCO)[C@@H](O)[C@H]3O)c2n1 [ticagrelor]	–	–	–	–	–	104	96.3	101	103	96.3	107	112	95.9	99.1	89.5	98.1	99.5	98	97.1	86.5	99.9	99.6	101	103	104	–	0	0	0.3	0	> 10	> 10	> 10	> 10	–
COC1=C2C[C@@H](C)C[C@H](OC)[C@H](O)[C@@H](C)/C=C(\C)[C@H](OC(N)=O)[C@@H](OC)/C=C\C=C(/C)C(=O)NC(=CC1=O)C2=O [geldanamycin]	97.1	102	98	98.1	65.9	100	101	93.6	24.2	3	101	105	106	1.2	1	106	95.9	95.1	56.9	29.2	99	107	103	68	35.4	1.8	15	17.3	9.2	7.6	0.474	0.35	0.716	1.01	–
Cc1ccc2c(c1)C1(CCN(CCc3nc(-c4ccccc4)oc3C)CC1)OC(=O)N2	92.9	101	96.4	94.4	74.1	98.5	96.5	96.3	94	88.8	101	96	96.7	95.3	75.4	97	91.7	93.3	94.4	87.7	94.9	103	98.1	98	85.3	1.8	0	1.6	0	0.4	> 10	> 10	> 10	> 10	–
O=c1ccc2cc3ccoc3cc2o1 [psoralen]	–	–	–	–	–	101	104	97.8	102	98.9	110	107	110	96.5	105	96.6	104	101	104	97.9	–	–	–	–	–	–	0	0	0	–	> 10	> 10	> 10	–	–
O=C(O)C[CH2][Ge](=[O])[O][Ge](=[O])[CH2]CC(=O)O [propagermanium]	–	–	–	–	–	101	101	99.1	97.1	97.5	104	106	95.3	96.8	88	108	91.4	106	93.4	100	102	105	95.6	99.2	105	–	0	0	0	0	> 10	> 10	> 10	> 10	–
CCN(CC)CCCCNc1ncc2cc(-c3c(Cl)cccc3Cl)c(NC(=O)NC(C)(C)C)nc2n1	102	102	104	104	25.2	100	101	95.2	76.8	31.9	98.3	102	106	65.5	40.3	98.4	94.3	96	75.2	69.5	104	90	104	77.2	29.8	3.8	6.7	7.5	4.4	7.2	1.38	0.885	–	1.34	3.48
Cc1cc(C)c2nc(-c3ccccn3)cc(C(=O)Nc3ccc(S(=O)(=O)Nc4onc(C)c4C)cc3)c2c1 [ML193]	–	–	–	–	–	100	98.7	103	98	98.4	89.7	108	100	97.2	104	95.2	90.1	101	83.7	114	97	93.5	96	86.3	94.9	–	0	0	0	0	> 10	> 10	> 10	> 10	–
C[C@H](NC(=O)[C@@H](O)c1cc(F)cc(F)c1)C(=O)N[C@@H]1C(=O)N(C)c2ccccc2-c2ccccc21	–	–	–	–	–	96	93.9	94	93	94.7	97.1	95.6	102	101	88.2	101	89.2	101	86	91.3	98	87.7	97.9	101	100	–	0	0	0	0	> 10	> 10	> 10	> 10	–
